According to patent US6838574B1, “Dicarba-closo-dodecarborane derivatives” (Institute of Medicinal Molecular Design, Inc., priority 1999, dated 2005):

Tests used:
Assay type in all cases: cell-based
[1] = target: T1, rat estrogen receptor (pCI-rER α) (Rattus norvegicus, UniProt P06211); test: Estrogenic activity, estrogen receptor-dependent luciferase reporter gene assay in COS-1 cells; conditions: for EC50: 50% of luciferase activity of β-estradiol at 10 nM (=100), COS-1; for Relative Activity (%) at the Same Amount of β-estradiol: β-estradiol = 100
T1 construct: expressed in transfected cells; host or cells: COS-1 cells
T1 sequence (P06211 1-600): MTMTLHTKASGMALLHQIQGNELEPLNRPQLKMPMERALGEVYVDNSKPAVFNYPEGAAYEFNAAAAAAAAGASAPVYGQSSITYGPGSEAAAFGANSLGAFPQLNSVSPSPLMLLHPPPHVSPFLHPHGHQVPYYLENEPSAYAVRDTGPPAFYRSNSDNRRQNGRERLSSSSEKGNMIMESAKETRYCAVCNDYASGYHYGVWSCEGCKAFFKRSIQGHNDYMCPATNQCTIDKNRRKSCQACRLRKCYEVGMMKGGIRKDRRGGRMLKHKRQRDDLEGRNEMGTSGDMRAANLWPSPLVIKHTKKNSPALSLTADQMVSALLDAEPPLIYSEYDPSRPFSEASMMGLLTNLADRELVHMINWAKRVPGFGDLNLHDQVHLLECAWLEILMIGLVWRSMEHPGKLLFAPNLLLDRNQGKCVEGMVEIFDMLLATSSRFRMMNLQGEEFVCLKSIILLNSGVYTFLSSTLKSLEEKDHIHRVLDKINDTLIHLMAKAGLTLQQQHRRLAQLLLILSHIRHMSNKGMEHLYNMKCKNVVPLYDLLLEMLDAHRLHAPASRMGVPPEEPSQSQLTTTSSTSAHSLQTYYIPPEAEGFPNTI
Description: As estrogenic activity, estrogen receptor-dependent transcriptional activation abilities of the test compounds were determined by the r porter gene assay using luciferase gene. COS-1 cells were cultured using a DMEM medium containing an antibiotics and 5% bovine fetal serum in the wells of 24 well plates (cell density: 5 to 6×10^4/well) at 37° C. for one night under 5% carbon dioxide. On the next day, the medium was changed to DMEM medium not containing Phenol Red. Using gene introducing reagent Tfx-20 (Promega), reporter plasmid EREx3-pGL-TK, in which rat estrogen receptor expression plasmid pCI-rER α and an estrogen responsive sequence were placed upstream of the luciferase gene, and β-galactosidase expression plasmid pCMV β used as an internal standard were introduced into cells. The cells were cultured for 2 h, and the medium was changed to DMEM not containing Phenol Red but containing active charcoal-treated serum.
The culture was added with each test compound dissolved in ethanol at various concentrations (final ethanol concentration at 0.5%) and then cultivation was continued at 37° C. for one night under 5% carbon dioxide. On the next day, the cells were lysed and enzymatic activity of luciferase expressed was measured by using a chemiluminometer. The values were standardized based on galactocidase enzymatic activity, and then compared with the values obtained by experiments using no test compound and used as values of activity at various concentrations. […] The estrogenic activities in the table are shown as concentrations for 50% activity (EC50 values) which give 50% activities relative to luciferase activity regarded as 100 that is expressed by treatment with the control compound β-estradiol at 10 nM. Each compound tested in this experiment has a high estrogenic activity.
Estrogenic activities, i.e., estrogen receptor-dependent transcriptional abilities of test compounds, were determined by the reporter gene assay using the luciferase gene in the same manner as those described above. In this experiment (Table 6), estrogenic activities at 0.1 nM, 1 nM, and 10 nM of the test compounds are shown as relative values in view of the luciferase activity regarded as 100 which is expressed at the same amounts of β-estradiol as a control, and intensities of activities were compared. Each compound tested in this experiment has high estrogenic activity.

[2] = system: human promyelocytic leukemia cell strain HL-60; test: HL-60 differentiation with coexisting differentiation inducer Am80 (anti-differentiation activity); conditions: coexisting Am80 1×10^−9 M (Table 4)
[3] = system: human promyelocytic leukemia cell strain HL-60; test: HL-60 differentiation induction, test compound alone; conditions: for differentiation inducing activity at low concentration (in words): 0.01 μM test compound; for differentiation inducing activity at low concentration (in words) / differentiation inducing activity (in words): HL-60; for percentage of differentiated cells, no coexisting compound: HL-60, 4 days, control <10; for differentiation inducing activity (in words): test compound alone
Description: Inhibitory activity against proliferation of human promyelocytic leukemia cell strain HL-60 was evaluated an index of anti-leukemia activity. Subcultured HL-60 cells were seeded with the initial cell number of 8×10^4 cells/ml in the RPMI 1640 medium containing bovine fetal serum and an antibiotics. Each test compound was added at various concentrations and the mixture was cultured at 37° C. Four days later, cell number was counted. Anti-leukemia activity of each test compound was shown in the tables as percentage values of differentiated cells, which cells were not differentiated in the absence of the test drug, […] observation and NBT reducing ability of the cells as indexes.

[4] = relative activity experiment (Table 6)
[5] = test compound 1 μM, morphology and NBT reducing ability

Row | Substance | EC50 [1] [nM] | Relative Activity (%) at the Same Amount of β-estradiol ([1]; 1 nM) [%] | Relative Activity (%) at the Same Amount of β-estradiol ([1]; 10 nM) [%] | also measured
1 | 1,7-bis(4-hydroxyphenyl)-1,7-dicarba-closo-dodecaborane [BE260] | 1 | – | – | –
2 | 1,12-bis(4-hydroxyphenyl)-1,12-dicarba-closo-dodecaborane [BE160] | 1 | – | – | –
3 | 1-(2-hydroxyethyl)-7-(3-hydroxyphenyl)-1,7-dicarba-closo-dodecaborane [BE422] | – | 11 | 24 | –
4 | 1-(2-hydroxyethyl)-7-(4-hydroxyphenyl)-1,7-dicarba-closo-dodecaborane [BE222] | – | 38 | 85 | –
5 | 1-(2-hydroxyethyl)-12-(3-hydroxyphenyl)-1,12-dicarba-closo-dodecaborane [BE322] | – | 43 | 85 | –
6 | 1-(2-hydroxyethyl)-12-(4-(hydroxyphenyl)-1,12-dicarba-closo-dodecaborane [BE122] | – | 98 | 104 | Relative Activity (%) at the Same Amount of β-estradiol ([1]; 0.1 nM): 83%
7 | 1-(2-hydroxymethyl)-7-(3-hydroxyphenyl)-1,7-dicarba-closo-dodecaborane [BE420] | – | 18 | 59 | –
8 | 1-(2-hydroxymethyl)-12-(3-hydroxyphenyl)-1,12-dicarba-closo-dodecaborane [BE320] | – | 127 | 127 | Relative Activity (%) at the Same Amount of β-estradiol ([1]; 0.1 nM): 116%; estrogenic activity compared with β-estradiol (in words) [1, 4]: much higher activities than that of β-estradiol
9 | 1-(3-hydroxyphenyl)-1,7-dicarba-closo-dodecaborane [BE400] | – | 11 | 38 | –
10 | 1-(3-hydroxyphenyl)-1,12-dicarba-closo-dodecaborane [BE300] | – | 20 | 59 | –
11 | 1-(3-hydroxypropyl)-7-(3-hydroxyphenyl)-1,7-dicarba-closo-dodecaborane [BE423] | – | <10 | 15 | –
12 | 1-(3-hydroxypropyl)-7-(4-hydroxyphenyl)-1,7-dicarba-closo-dodecaborane [BE223] | – | 20 | 51 | –
13 | 1-(3-hydroxypropyl)-12-(3-hydroxyphenyl)-1,12-dicarba-closo-dodecaborane [BE323] | – | 12 | 31 | –
14 | 1-(3-hydroxypropyl)-12-(4-hydroxyphenyl)-1,12-dicarba-closo-dodecaborane [BE123] | – | 56 | 79 | Relative Activity (%) at the Same Amount of β-estradiol ([1]; 0.1 nM): 29%
15 | 1-(4-hydroxyphenyl)-1,7-dicarba-closo-dodecaborane [BE200] | 2 | 45 | 72 | –
16 | 1-(4-hydroxyphenyl)-1,12-dicarba-closo-dodecaborane [BE100] | 0.7 | 63 | 82 | Relative Activity (%) at the Same Amount of β-estradiol ([1]; 0.1 nM): 51%; estrogenic activity compared with β-estradiol (in words) ([1]; EC50 experiment (Table 5)): much higher activity than that of β-estradiol
17 | 1-amino-12-(4-hydroxyphenyl)-1,12-dicarba-closo-dodecaborane [BE140] | 0.5 | – | – | estrogenic activity compared with β-estradiol (in words) ([1]; EC50 experiment (Table 5)): much higher activity than that of β-estradiol
18 | 1-hydrocarbonyl-12-(4-hydroxyphenyl)-12-dicarba-closo-dodecaborane [BE130] | 10 | – | – | –
19 | 1-hydroxy-7-(3-hydroxyphenyl)-1,7-dicarba-closo-dodecaborane [BE419] | – | 14 | 38 | –
20 | 1-hydroxy-7-(4-hydroxyphenyl)-1,7-dicarba-closo-dodecaborane [BE219] | – | 40 | 71 | –
21 | 1-hydroxy-12-(3-hydroxy phenyl)-1,12-dicarba-closo-dodecaborane [BE319] | – | 53 | 72 | –
22 | 1-hydroxy-12-(4-hydroxyphenyl)-1,12-dicarba-closo-dodecaborane [BE119] | – | 132 | 120 | Relative Activity (%) at the Same Amount of β-estradiol ([1]; 0.1 nM): 133%; estrogenic activity compared with β-estradiol (in words) [1, 4]: much higher activities than that of β-estradiol
23 | 1-hydroxyethyl-12-(4-hydroxyphenyl)-1,12-dicarba-closo-dodecaborane [BE121] | 1 | – | – | estrogenic activity compared with β-estradiol (in words) ([1]; EC50 experiment (Table 5)): much higher activity than that of β-estradiol
24 | 1-hydroxymethyl-12-(4-hydroxyphenyl)-1,12-dicarba-closo-dodecaborane [BE120] | 0.05 | 163 | 126 | Relative Activity (%) at the Same Amount of β-estradiol ([1]; 0.1 nM): 212%; estrogenic activity compared with β-estradiol (in words) ([1]; EC50 experiment (Table 5)): much higher activity than that of β-estradiol; estrogenic activity compared with β-estradiol (in words) [1, 4]: much higher activities than that of β-estradiol
25 | 1-methoxycarbonyl-12-(4-hydroxyphenyl)-1,12-dicarba-closo-dodecaborane [BE110] | 2 | – | – | –
26 | 4-(2,3,4,5,6,7,8,9,10,11-decamethyl-1,12-dicarba-closo-dodecaborane-1-carbonylamino) benzoic acid [BR630] | – | – | – | anti-differentiation activity (in words) [2]: remarkable anti-differentiation activities
27 | 4-(2,3,4,5,6,7,8,9,10,11-decamethyl-1,12-dicarba-closo-dodecaborane-1-carbonylamino) benzoic acid [BR635] | – | – | – | anti-differentiation activity (in words) [2]: remarkable anti-differentiation activities
28 | 4-[3-(2-propyl-1,2-dicarba-closo-dodecaboran-1-yl)phenylamino]benzoic acid [BR453] | – | – | – | differentiation inducing activity at low concentration (in words) [3]: activities were maintained; percentage of differentiated cells, no coexisting compound ([3]; test compound 0.01 μM): 80%; percentage of differentiated cells, no coexisting compound [3, 5]: 80%; differentiation inducing activity (in words) [3]: strong differentiation inducing activities
29 | 4-[4-(2-propyl-1,2-dicarba-closo-dodecaboran-1-yl)phenylamino]benzoic acid [BR403] | – | – | – | differentiation inducing activity at low concentration (in words) [3]: activities were maintained; percentage of differentiated cells, no coexisting compound ([3]; test compound 0.01 μM): 84%; percentage of differentiated cells, no coexisting compound [3, 5]: 82%; differentiation inducing activity (in words) [3]: strong differentiation inducing activities
